From PubChem BioAssay (NCI)
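Results reflect a 48-hour exposure of cells in 96-well plates to compound at five concentrations. GI50: concentration for 50% inhibition of growth. Definition used: TGI = concentration required for complete inhibition of growth.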

Key:
Test in all cases: growth of human tumour cells (NCI), 48 h
NCI-H23 lung = system: NCI-H23 lung
BT-549 breast = system: BT-549 breast
786-0 renal = system: 786-0 renal
TK-10 renal = system: TK-10 renal
HT29 colon = system: HT29 colon
OVCAR-8 ovarian = system: OVCAR-8 ovarian
HS 578T breast = system: HS 578T breast
NCI-H460 lung = system: NCI-H460 lung

Row | Compound | GI50 (NCI-H23 lung) | TGI (NCI-H23 lung) | GI50 (BT-549 breast) | TGI (BT-549 breast) | GI50 (786-0 renal) | TGI (786-0 renal) | GI50 (TK-10 renal) | GI50 (HT29 colon) | GI50 (OVCAR-8 ovarian) | TGI (OVCAR-8 ovarian) | GI50 (HS 578T breast) | GI50 (NCI-H460 lung) | TGI (NCI-H460 lung) | TGI (TK-10 renal) | TGI (HT29 colon) | TGI (HS 578T breast)
1 | COc1cccc2c1C(=O)c1c(O)c3c(c(O)c1C2=O)C[C@@](O)(C(=O)CO)C[C@@H]3OC1C[C@H](N)[C@H](O)[C@H](C)O1 (some centres not stated) | 0.0484 µM | 0.234 µM | 0.059 µM | 0.241 µM | 0.0324 µM | 1.19 µM | 0.177 µM | 0.0958 µM | 0.067 µM | > 16.2 µM | 0.132 µM | 0.005 µM | > 50 µM | – | – | –
2 | COc1ccc2c(c1)C(c1ccccc1Cl)=Nc1c(n[nH]c1C)N2 | 22.6 µM | > 25 µM | > 21.2 µM | > 25 µM | > 18.6 µM | > 25 µM | > 25 µM | > 18.7 µM | > 25 µM | > 25 µM | 3.43 µM | 18.5 µM | > 25 µM | > 25 µM | > 25 µM | 20.3 µM
3 | c1ccc(-c2nc(-c3ccccc3)c(-c3ccccc3)[nH]2)cc1 | – | > 100 µM | – | > 100 µM | – | > 100 µM | – | – | – | > 100 µM | – | – | > 100 µM | > 100 µM | > 100 µM | > 82 µM
4 | O=C(N/N=C/c1ccccc1O)C(=O)Nc1ccc(F)cc1 | 7.31 µM | > 100 µM | 18.1 µM | > 100 µM | 6.96 µM | > 100 µM | 6.12 µM | 8.86 µM | 4.3 µM | > 100 µM | 33.8 µM | 2.74 µM | > 100 µM | > 100 µM | > 100 µM | > 100 µM
5 | CCCCCCCCCCCCSC(=N)N | 16.3 µM | 32.8 µM | 18.9 µM | 47.1 µM | 15.3 µM | 33.9 µM | 16.4 µM | 2.2 µM | 5.77 µM | 23.4 µM | 17.3 µM | 3.42 µM | 13.4 µM | 32.3 µM | 5.73 µM | 38.8 µM
6 | C=CCC(N[C@H](CO)c1ccccc1)c1cn(C(=O)OCC)c2ccccc12 (some centres not stated) | 15.8 µM | 32 µM | 19.8 µM | 39 µM | 15.2 µM | 28.9 µM | 16.5 µM | 31 µM | 13.4 µM | 27.7 µM | 19.4 µM | 37.3 µM | > 100 µM | 34 µM | > 100 µM | 46 µM
7 | O=C(c1ccco1)c1c(C(F)(F)F)n([O-])c2ccccc2[n+]1=O | 1.21 µM | 7.26 µM | 1.31 µM | 3.81 µM | 0.42 µM | 1.83 µM | 1.49 µM | 4.2 µM | 1.23 µM | 22.5 µM | 1.75 µM | 0.245 µM | 1.15 µM | 6.7 µM | 50 µM | 13.1 µM
8 | O=C(O)c1ccc(N/C=C2\C(=O)c3ccccc3OC2O)cc1O (configuration not stated) | 19 µg/mL | 58.4 µg/mL | 19 µg/mL | 71.2 µg/mL | 28.5 µg/mL | 52.3 µg/mL | 36 µg/mL | 29.7 µg/mL | 22 µg/mL | 97.2 µg/mL | 11.2 µg/mL | 32.3 µg/mL | 78.3 µg/mL | 106 µg/mL | 83.2 µg/mL | 76.5 µg/mL
